In patent US7960384B2, “Dipeptidyl peptidase inhibitors” (Takeda Pharmaceutical Company Limited, priority 2006, dated 2011):

Target: Human DPP-IV (Homo sapiens, UniProt P27487)
Assay: DPP-IV Assay (protease inhibition, AP-AFC substrate)
Format: biochemical
Method: Solutions of test compounds in varying concentrations (≦10 mM final concentration) were prepared in Dimethyl Sulfoxide (DMSO) and then diluted into assay buffer comprising: 20 mM Tris, pH 7.4; 20 mM KCl; and 0.1 mg/mL BSA. Human DPP-IV (0.1 nM final concentration) was added to the dilutions and pre-incubated for 10 minutes at ambient temperature before the reaction was initiated with A-P-7-amido-4-trifluoromethylcoumarin (AP-AFC; 10 μM final concentration). The total volume of the reaction mixture was 10-100 μL depending on assay formats used (384 or 96 well plates). The reaction was followed kinetically (excitation λ=400 nm; emission λ=505 nm) for 5-10 minutes or an end-point was measured after 10 minutes. Inhibition constants (IC50) were calculated from the enzyme progress curves using standard mathematical models.

Chain of Human DPP-IV (P27487 whole entry): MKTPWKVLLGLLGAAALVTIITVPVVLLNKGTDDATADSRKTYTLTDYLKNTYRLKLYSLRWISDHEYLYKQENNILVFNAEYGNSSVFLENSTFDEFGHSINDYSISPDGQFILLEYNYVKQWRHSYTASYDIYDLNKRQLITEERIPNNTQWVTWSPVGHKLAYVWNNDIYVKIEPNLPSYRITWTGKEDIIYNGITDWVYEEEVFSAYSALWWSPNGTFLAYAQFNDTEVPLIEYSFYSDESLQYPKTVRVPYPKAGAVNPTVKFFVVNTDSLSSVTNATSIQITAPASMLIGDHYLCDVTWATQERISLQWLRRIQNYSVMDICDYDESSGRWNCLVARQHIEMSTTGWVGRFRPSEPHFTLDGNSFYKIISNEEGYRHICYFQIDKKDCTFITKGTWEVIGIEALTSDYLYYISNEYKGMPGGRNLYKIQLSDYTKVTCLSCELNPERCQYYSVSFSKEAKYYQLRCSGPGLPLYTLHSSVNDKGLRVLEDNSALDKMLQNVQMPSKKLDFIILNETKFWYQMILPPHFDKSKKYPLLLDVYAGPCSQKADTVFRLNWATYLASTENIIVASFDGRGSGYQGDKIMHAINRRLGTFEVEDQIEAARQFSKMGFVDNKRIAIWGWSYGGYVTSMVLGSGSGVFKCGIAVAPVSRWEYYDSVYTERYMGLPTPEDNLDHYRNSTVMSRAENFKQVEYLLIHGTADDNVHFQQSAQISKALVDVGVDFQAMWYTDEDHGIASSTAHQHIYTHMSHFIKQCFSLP

IC50 (DPP-IV inhibition, Human DPP-IV 0.1 nM, AP-AFC 10 μM): < 50 µM | selectivity in protease inhibition assays (tested in DPP-IV, FAPα, PREP and Tryptase assays): selective DPP-IV inhibitory activity
Structure (SMILES): COc1ccccc1-c1ccc2[nH]c(=O)c(=O)[nH]c2c1CN [Example 1, 5-Aminomethyl-6-(2-methoxy-phenyl)-1,4-dihydro-quinoxaline-2,3-dione]
